Source: ChEMBL document CHEMBL4038308, “Lipophosphonoxins II: Design, Synthesis, and Properties of Novel Broad Spectrum Antibacterial Agents” (J Med Chem, 2017)
≈ marks a conversion by molar mass, not a printed value. Calls of active or inactive are those of the source. The rule behind the calls is not given here.

Key:
[1] = Pore forming activity across black lipid bilayer membranes assessed as induction of variation in membrane current by measuring pore conductance at 5 ug/ml
Bacillus subtilis [2] = assay: Antibacterial activity against Bacillus subtilis assessed as inhibition of DNA synthesis at 100 mg/L after 50 mins by [3H]thymidine incorporation assay; type: functional
Bacillus subtilis [3] = assay: Antibacterial activity against Bacillus subtilis assessed as inhibition of RNA synthesis at 100 mg/L after 50 mins by [3H]-uridine incorporation assay; type: functional
Bacillus subtilis [4] = assay: Antibacterial activity against Bacillus subtilis assessed as inhibition of peptidoglycan synthesis at 100 mg/L after 50 mins by [3H]-N-acetylglucosamine incorporation assay; type: functional
Bacillus subtilis [5] = assay: Antibacterial activity against Bacillus subtilis assessed as inhibition of plasma membrane lipids synthesis at 100 mg/L after 50 mins by [3H]-sodium acetate incorporation assay; type: functional
Bacillus subtilis [6] = assay: Antibacterial activity against Bacillus subtilis assessed as inhibition of protein synthesis at 100 mg/L after 50 mins by [35S]-methionine incorporation assay; type: functional
Escherichia coli [7] = assay: Antibacterial activity against Escherichia coli CCM 3954 after 24 hrs by microdilution method; type: functional; details: CCM 3954, 24 h
Pseudomonas aeruginosa [8] = assay: Antibacterial activity against Pseudomonas aeruginosa CCM 3955 after 24 hrs by microdilution method; type: functional; details: CCM 3955, 24 h
Enterococcus faecalis = assay: Antibacterial activity against Enterococcus faecalis CCM 4224 after 24 hrs by microdilution method; type: functional; details: CCM 4224, 24 h
Staphylococcus aureus [9] = assay: Antibacterial activity against Staphylococcus aureus CCM 4223 after 24 hrs by microdilution method; type: functional; details: CCM 4223, 24 h
Bacillus subtilis [10] = assay: Antibacterial activity against Bacillus subtilis after 24 hrs by microdilution method; type: functional
Streptococcus agalactiae = assay: Antibacterial activity against Streptococcus agalactiae after 24 hrs by microdilution method; type: functional
Escherichia coli [11] = assay: Antibacterial activity against Escherichia coli 16702 after 24 hrs by microdilution method; type: functional; details: Escherichia coli, 16702, 24 h
Pseudomonas aeruginosa [12] = assay: Antibacterial activity against Pseudomonas aeruginosa 16575 after 24 hrs by microdilution method; type: functional; details: Pseudomonas aeruginosa, 16575, 24 h
Staphylococcus aureus [13] = assay: Antibacterial activity against methicillin-resistant Staphylococcus aureus 4591 clinical isolates after 24 hrs by microdilution method; type: functional; details: Staphylococcus aureus, 4591, 24 h
[14] = test system: Staphylococcus haemolyticus; assay: Antibacterial activity against fluoroquinolne-resistant Staphylococcus haemolyticus 16568 after 24 hrs by microdilution method; type: functional; details: Staphylococcus haemolyticus, 16568, 24 h
[15] = test system: Staphylococcus epidermidis; assay: Antibacterial activity against Staphylococcus epidermidis 8700/B after 24 hrs by microdilution method; type: functional
Enterococcus faecium = assay: Antibacterial activity against vancomycin-resistant Enterococcus faecium 419/ana clinical isolates after 24 hrs by microdilution method; type: functional
Salmonella enteritidis = assay: Antibacterial activity against Salmonella enteritidis S2-25 after 24 hrs by microdilution method; type: functional, Salmonella enterica subsp. enterica serovar Enteritidis; details: Salmonella enterica, S2-25, 24 h
Acinetobacter baumannii = assay: Antibacterial activity against Acinetobacter baumannii A3-08 after 24 hrs by microdilution method; type: functional; details: A3-08, 24 h
[16] = test system: Stenotrophomonas maltophilia; assay: Antibacterial activity against Stenotrophomonas maltophilia S2-23 after 24 hrs by microdilution method; type: functional; details: S2-23, 24 h
Burkholderia multivorans = assay: Antibacterial activity against Burkholderia multivorans after 24 hrs by microdilution method; type: functional
Lipid bilayer = assay: Binding affinity to DOPG large unilamellar vesicle assessed as carboxyfluorescein leakage at 10 mg/L after 20 secs by fluorescence-based assay relative to control
Bacillus subtilis [17] = assay: Antibacterial activity against Bacillus subtilis assessed as inhibition of DNA synthesis at 2 mg/L after 50 mins by [3H]thymidine incorporation assay; type: functional
Bacillus subtilis [18] = assay: Antibacterial activity against Bacillus subtilis assessed as inhibition of RNA synthesis at 2 mg/L after 50 mins by [3H]-uridine incorporation assay; type: functional
Bacillus subtilis [19] = assay: Antibacterial activity against Bacillus subtilis assessed as inhibition of peptidoglycan synthesis at 2 mg/L after 50 mins by [3H]-N-acetylglucosamine incorporation assay; type: functional
Bacillus subtilis [20] = assay: Antibacterial activity against Bacillus subtilis assessed as inhibition of plasma membrane lipids synthesis at 2 mg/L after 50 mins by [3H]-sodium acetate incorporation assay; type: functional
Bacillus subtilis [21] = assay: Antibacterial activity against Bacillus subtilis assessed as inhibition of protein synthesis at 2 mg/L after 50 mins by [35S]-methionine incorporation assay; type: functional

## CCCCCCCCCC(=O)N[C@@H](Cc1c[nH]c2ccccc12)C(=O)N[C@@H](CC(N)=O)C(=O)N[C@@H](CC(=O)O)C(=O)N[C@@H]1C(=O)NCC(=O)N[C@@H](CCCN)C(=O)N[C@@H](CC(=O)O)C(=O)N[C@H](C)C(=O)N[C@@H](CC(=O)O)C(=O)NCC(=O)N[C@H](CO)C(=O)N[C@@H]([C@H](C)CC(=O)O)C(=O)N[C@@H](CC(=O)c2ccccc2N)C(=O)O[C@@H]1C
[1]
  Activity: 500 pS

## C/C=C/C/C=C/CCC(=O)[C@H]1O[C@H]1C(N)=O
Bacillus subtilis [2]
  inhibition: Active
Bacillus subtilis [3]
  inhibition: Active
Bacillus subtilis [4]
  inhibition: Active
Bacillus subtilis [5]
  inhibition: Active
Bacillus subtilis [6]
  inhibition: Active

## CCCCCCCCCCCCCCOP(=O)(CCN(CCCNC(=N)N)CCCNC(=N)N)OC[C@H]1O[C@@H](n2ccc(=O)[nH]c2=O)[C@H](O)[C@@H]1O (stereo partly drawn)
Escherichia coli [7]
  MIC: 3.13 µg/mL (≈ 4.2 µM)
Pseudomonas aeruginosa [8]
  MIC: 3.13 µg/mL (≈ 4.2 µM)
Enterococcus faecalis
  MIC: 12.5 µg/mL (≈ 16.8 µM)
Staphylococcus aureus [9]
  MIC: 6.25 µg/mL (≈ 8.38 µM)
Bacillus subtilis [10]
  MIC: 1.56 µg/mL (≈ 2.09 µM)
Streptococcus agalactiae
  MIC: 3.13 µg/mL (≈ 4.2 µM)
Escherichia coli [11]
  MIC: 3.13 µg/mL (≈ 4.2 µM)
Pseudomonas aeruginosa [12]
  MIC: 6.25 µg/mL (≈ 8.38 µM)
Staphylococcus aureus [13]
  MIC: 6.25 µg/mL (≈ 8.38 µM)
[14]
  MIC: 3.13 µg/mL (≈ 4.2 µM)
[15]
  MIC: 3.13 µg/mL (≈ 4.2 µM)
Enterococcus faecium
  MIC: 50 µg/mL (≈ 67 µM)
Salmonella enteritidis
  MIC: 3.13 µg/mL (≈ 4.2 µM)
Acinetobacter baumannii
  MIC: 12.5 µg/mL (≈ 16.8 µM)
[16]
  MIC: 12.5 µg/mL (≈ 16.8 µM)
Burkholderia multivorans
  MIC: 100 µg/mL (≈ 134 µM)
Lipid bilayer
  Activity: Active

## CO[C@H]1/C=C/O[C@@]2(C)Oc3c(C)c(O)c4c(O)c(c(/C=N/N5CCN(C)CC5)c(O)c4c3C2=O)NC(=O)/C(C)=C\C=C\[C@H](C)[C@H](O)[C@@H](C)[C@@H](O)[C@@H](C)[C@H](OC(C)=O)[C@@H]1C
Bacillus subtilis [17]
  inhibition: Active
Bacillus subtilis [18]
  inhibition: Active
Bacillus subtilis [19]
  inhibition: Active
Bacillus subtilis [20]
  inhibition: Active
Bacillus subtilis [21]
  inhibition: Active
